Experimental data from ChEMBL document CHEMBL1157049, “Synthesis and study of some new 1,3-isoindoledione derivatives as potential antibacterial agents” (2010).

Tests used:
[1] = system: Escherichia coli; test: Antimicrobial activity Escherichia coli at 2 mg/mL after 24 hrs by agar diffusion technique; type: functional; details: read-out: DIZ
[2] = system: Bacillus thuringiensis; test: Antimicrobial activity Bacillus thuringiensis at 2 mg/mL after 24 hrs by agar diffusion technique; type: functional; details: read-out: DIZ

**Q.** How did the zone of inhibition at 2000 µg/mL [1] turn out when `O=C1C2C3c4ccccc4C(c4ccccc43)C2C(=O)N1c1ccccc1S` (stereo not drawn) was run?
**A.** 16 mm

**Q.** What about the zone of inhibition at 2000 µg/mL [2] of the same molecule?
**A.** 18 mm

**Q.** Which results are given for `O=C1C2C3c4ccccc4C(c4ccccc43)C2C(=O)N1c1ccccc1O` (stereo not drawn)?
**A.** zone of inhibition at 2000 µg/mL [1]: 16 mm; zone of inhibition at 2000 µg/mL [2]: 17 mm

**Q.** What does the source list for `CCOC(=O)c1c(N2C(=O)C3C4c5ccccc5C(c5ccccc54)C3C2=O)sc2c1CCCC2` (stereo not drawn)?
**A.** zone of inhibition at 2000 µg/mL [1]: 14 mm; zone of inhibition at 2000 µg/mL [2]: 15 mm

**Q.** Which results are given for `O=C1C2C3c4ccccc4C(c4ccccc43)C2C(=O)N1C(CO)(CO)CO` (stereo not drawn)?
**A.** zone of inhibition at 2000 µg/mL [1]: 14 mm; zone of inhibition at 2000 µg/mL [2]: 15 mm

**Q.** What does the source list for `Cc1ccc2nc(N3C(=O)C4C5c6ccccc6C(c6ccccc65)C4C3=O)sc2c1` (stereo not drawn)?
**A.** zone of inhibition at 2000 µg/mL [1]: 29 mm; zone of inhibition at 2000 µg/mL [2]: 26 mm

**Q.** How did the zone of inhibition at 2000 µg/mL [1] turn out when `O=C1C2C3c4ccccc4C(c4ccccc43)C2C(=O)N1c1ccc(/N=N/c2ccccc2)cc1` (stereo not drawn) was run?
**A.** 14 mm

**Q.** And the zone of inhibition at 2000 µg/mL [2]?
**A.** 13 mm

**Q.** `Cc1ccc(/N=N/c2ccc(N3C(=O)C4C5c6ccccc6C(c6ccccc65)C4C3=O)cc2)cc1` (stereo not drawn) was tested. Which zone of inhibition at 2000 µg/mL [1] did it give?
**A.** 14 mm

**Q.** And the zone of inhibition at 2000 µg/mL [2]?
**A.** 11 mm

**Q.** What does the source list for `Cc1ccc(S(=O)(=O)Oc2ccccc2N2C(=O)C3C4c5ccccc5C(c5ccccc54)C3C2=O)cc1` (stereo not drawn)?
**A.** zone of inhibition at 2000 µg/mL [1]: 18 mm; zone of inhibition at 2000 µg/mL [2]: 15 mm

**Q.** For `CC(=O)c1ccc(N2C(=O)C3C4c5ccccc5C(c5ccccc54)C3C2=O)cc1` (stereo not drawn), which zone of inhibition at 2000 µg/mL [1] is on record?
**A.** 12 mm

**Q.** And the zone of inhibition at 2000 µg/mL [2]?
**A.** 15 mm

**Q.** Which zone of inhibition at 2000 µg/mL [1] does the source give for `O=C1/C(=N\c2ccccc2N2C(=O)C3C4c5ccccc5C(c5ccccc54)C3C2=O)C=C(Nc2ccccc2N2C(=O)C3C4c5ccccc5C(c5ccccc54)C3C2=O)c2ccccc21` (stereo not drawn) here?
**A.** 17 mm

**Q.** And the zone of inhibition at 2000 µg/mL [2]?
**A.** 17 mm

**Q.** How did the zone of inhibition at 2000 µg/mL [1] turn out when `O=C1C2C3c4ccccc4C(c4ccccc43)C2C(=O)N1c1ccccc1SSc1ccccc1N1C(=O)C2C3c4ccccc4C(c4ccccc43)C2C1=O` (stereo not drawn) was run?
**A.** 17 mm

**Q.** And the zone of inhibition at 2000 µg/mL [2]?
**A.** 17 mm

**Q.** What does the source list for `O=C(c1ccc(N2C(=O)C3C4c5ccccc5C(c5ccccc54)C3C2=O)cc1)C(Br)Br` (stereo not drawn)?
**A.** zone of inhibition at 2000 µg/mL [1]: 14 mm; zone of inhibition at 2000 µg/mL [2]: 17 mm

**Q.** What does the source list for `O=C1C2C3c4ccccc4C(c4ccccc43)C2C(=O)N1c1nc[nH]n1` (stereo not drawn)?
**A.** zone of inhibition at 2000 µg/mL [1]: 15 mm; zone of inhibition at 2000 µg/mL [2]: 17 mm

**Q.** For `O=C(c1ccc(N2C(=O)C3C4c5ccccc5C(c5ccccc54)C3C2=O)cc1)c1nc2ccccc2[nH]1` (stereo not drawn), which zone of inhibition at 2000 µg/mL [1] is on record?
**A.** 23 mm

**Q.** And the zone of inhibition at 2000 µg/mL [2]?
**A.** 20 mm

**Q.** Which results are given for `COC(=O)n1c(C2C3c4ccccc4C(c4ccccc43)C2C(=O)O)nc2ccccc21` (stereo not drawn)?
**A.** zone of inhibition at 2000 µg/mL [1]: 13 mm; zone of inhibition at 2000 µg/mL [2]: 17 mm

**Q.** For `Nc1ccccc1N1C(=O)C2C3c4ccccc4C(c4ccccc43)C2C1=O` (stereo not drawn), which zone of inhibition at 2000 µg/mL [1] is on record?
**A.** 12 mm

**Q.** And the zone of inhibition at 2000 µg/mL [2]?
**A.** 17 mm

**Q.** `CC(=O)Nc1ccccc1N1C(=O)C2C3c4ccccc4C(c4ccccc43)C2C1=O` (stereo not drawn) was tested. Which zone of inhibition at 2000 µg/mL [1] did it give?
**A.** 16 mm

**Q.** And the zone of inhibition at 2000 µg/mL [2]?
**A.** 18 mm

**Q.** How did the zone of inhibition at 2000 µg/mL [1] turn out when `CC1(C)S[C@@H]2[C@H](NC(=O)[C@H](N)c3ccccc3)C(=O)N2[C@H]1C(=O)O` [AMPICILLIN] was run?
**A.** 19 mm

**Q.** And the zone of inhibition at 2000 µg/mL [2]?
**A.** 18 mm

**Q.** How did the zone of inhibition at 2000 µg/mL [1] turn out when `O=C(N[C@H](CO)[C@H](O)c1ccc([N+](=O)[O-])cc1)C(Cl)Cl` [CHLORAMPHENICOL] was run?
**A.** 20 mm

**Q.** What about the zone of inhibition at 2000 µg/mL [2] of the same molecule?
**A.** 23 mm
